Experimental data published in patent US4814353A, “Therapeutic and prophylactic agent for gastritis” (Eisai Co., Ltd., priority 1985, dated 1989).

Experiments:
Solubility = format: physicochemical
[1] = Clinical instances, acute animus state/stage of chronic gastritis, peroral teprenone (symptoms, endoscopy, side effects); format: in vivo, human; settings: 150 mg per day perorally
Source text: (§1) Specific clinical instances will be illustrated to substantiate the effect of the present invention. In the clinical instances, "teprenone" refers to a compound according to the present invention (teprenone is 6,10,14,18-tetramethyl-;b 5,9,13,17-nonadecatetraen-2-one with n=4 in the general formula (I)).
person: acute animus state of chronic gastritis
The conditions of the patient before administration were as follows.
The patient complained of subjective symptoms including severe pyrosis, eructation, and slight nausea and emesis. Lesion of mucosa ventriculi was endoscopically recognized in the curvature ventriculi major of the vestibulum.
(§2) 150 mg per day of teprenone, which is the compound according to the present invention, was perorally administered to the patient.
(§3) person: acute animus stage of chronic gastritis
The conditions of the patient before administration were as follows. The patient complained of medium epigastralgia, slight abdominal oppression, gastric dysphoria, and anorexia. Lesion of tunica mucosa ventriculi was endoscopically recognized in the curvatura ventriculi minor of the angularis and the curvatura ventriculi minor of the corpus ventriculi.
as §3
The subjective symptoms included epigastralgia, pyrosis, abdominal oppression, gastric dysphoria, and eructation. The levels of them were all medium.
Endoscopically, lesion was recognized in the vestibulum (paries anterior ventriculi, curvatura ventriculi minor, paries posterior ventriculi).

[2] = Acute toxicity test, rat (SD); settings: in vivo
Source text: (§4) |Acute Toxicity LD50 (mg/μg)

[3] = Acute toxicity test, mouse (ICR); settings: in vivo
Source text: as §4

[4] = Clinical instances, acute gastritis, peroral teprenone (symptoms, endoscopy, side effects); format: in vivo, human; settings: 150 mg per day perorally; for subjective symptoms: acute gastritis, 3 days after administration; for endoscopy, lesion of tunica mucosa ventriculi: 5 days after administration
Source text: as §1
person: actute gastritis
The instance is concerned with a person who visited a hospital while mainly complaining of epigastralgia.
The subjective symptoms included not only severe epigastralgia but also medium nausea, emesis, anorexia, slight pyrosis, abdominal flatulence, abdominal oppression, gastric dysphoria, and eructation.
150 mg per day of teprenone, which is a compound according to the present invention, was perorally administered to the patient.
person: acute gastritis
The conditions of te patient before administration were as follows.
The subjective symptoms included severe epigastralgia, anorexia, medium pyrosis, nausea, emesis, abdominal flatulence, gastric dysphoria, slight abdominal oppression, and eructation.
In endoscopy before administration, lesion of tunica mucosa ventriculi was recognized in the vestibulum (paries anterior venticuli, curvatura ventriculi minor, paries posterior ventriculi) and angularis (paries anterior ventriculi, curvatura ventriculi minor, paries posterior ventriculi).
as §2

[5] = Acute toxicity test, dog (beagle); settings: in vivo, po, male, peroral
Source text: as §4

[6] = Clinical Instance 5, after two weeks

## CC(=O)CCC=C(C)CCC=C(C)CCC=C(C)CCC=C(C)C (mixture of isomers) [3:2 mixture of (5E,9E,13E)-6,10,14,18-tetramethyl-5,9,13,17-nonadecatetraen-2-one and (5Z,9E,13E)-6,10,14,18-tetramethyl-5,9,13,17-nonadecatetraen-2-one]
Solubility; organic solvents
  solubility in organic solvents: soluble in organic solvents
Solubility; water
  solubility in water: hardly soluble in water

## CC(=O)CCC=C(C)CCC=C(C)CCC=C(C)CCC=C(C)C [teprenone, 6,10,14,18-tetramethyl-5,9,13,17-nonadecatetraen-2-one]
[1]; Clinical Instance 2, person, chronic gastritis, 3 days after administration
  subjective symptoms: all the symptoms disappeared
[1]; Clinical Instance 2
  side effects, including observation of clinical inspection: No side effects were recognized altogether
[1]; Clinical Instance 2, 16 days after administration
  endoscopy, lesion of tunica mucosa ventriculi: disappearance of the lesion of tunica mucosa ventriculi was recognized
[1]; Clinical Instance 4, person, chronic gastritis, 3 days after administration
  subjective symptoms: substantially all the symptoms disappeared except that slight epigastralgia remained
[1]; Clinical Instance 4
  side effects, including observation of clinical inspection: No side effects were recognized altogether
[1]; Clinical Instance 4, 5 days after administration
  epigastralgia: the epigastralgia also disappeared
[1]; Clinical Instance 4, 14 days after administration
  endoscopy, lesion of tunica mucosa ventriculi: disappearance of the lesion of tunica mucosa ventriculi was recognized
[1]; Clinical Instance 5, person, chronic gastritis, 3 days after administration
  subjective symptoms: the abdominal oppression, the gastric dysphoria, and the eructation were mitigated, but the epigastralgia and the pyrosis remained unchanged
[1]; Clinical Instance 5
  side effects: No side effects were regonized
[1]; Clinical Instance 5, a week after administration
  subjective symptoms: all the symptoms disappeared except for slight eructation
[1]; [6]
  endoscopy, lesion of tunica mucosa ventriculi: the lesion of tunica mucosa ventriculi disappeared in all parts
  eructation: The eructation remained
[2]; im, female, intramuscular
  LD50: > 5000 mg/kg
[2]; im, male, intramuscular
  LD50: > 5000 mg/kg
[2]; ip, female, intraperitoneal
  LD50: 3500 to 5000 mg/kg
[2]; ip, male, intraperitoneal
  LD50: > 5000 mg/kg
[2]; po, female, peroral
  LD50: > 15000 mg/kg
[2]; po, male, peroral
  LD50: > 15000 mg/kg
[2]; sc, female, subcutaneous
  LD50: > 10000 mg/kg
[2]; sc, male, subcutaneous
  LD50: > 10000 mg/kg
[3]; im, female, intramuscular
  LD50: > 5000 mg/kg
[3]; im, male, intramuscular
  LD50: > 5000 mg/kg
[3]; ip, female, intraperitoneal
  LD50: 3850 mg/kg
[3]; ip, male, intraperitoneal
  LD50: 3750 mg/kg
[3]; po, female, peroral
  LD50: > 15000 mg/kg
[3]; po, male, peroral
  LD50: > 15000 mg/kg
[3]; sc, female, subcutaneous
  LD50: > 10000 mg/kg
[3]; sc, male, subcutaneous
  LD50: > 10000 mg/kg
[4]; Clinical Instance 1, person
  subjective symptoms: all the symptons disappeared
[4]; Clinical Instance 1
  observation of clinical inspection: no abnormality was recognized
  side effects: no side effect altogether
  endoscopy, lesion of tunica mucosa ventriculi: disappearance of the lesion of the tunica mucosa ventriculi was recognized
[4]; Clinical Instance 3, person
  subjective symptoms: all the symptoms disappeared
[4]; Clinical Instance 3
  observation of clinical inspection: no lesion was recognized
  side effects: no side effects altogether
  endoscopy, lesion of tunica mucosa ventriculi: disappearance of the lesion of tunica mucosa ventriculi was recognized
[5]
  LD50: > 1000 mg/kg
